Data from patent US4110321A, “Synthetic tridecapeptide [Gln^4 ]-neurotensin having hormonal activity” (priority 1977, dated 1978).
Where no end group is shown, it is not given here.

What was measured:
[1] = tested on: canine fundic, antral and intestinal pouches; test: Spontaneous motor activity in isolated canine fundic, antral and intestinal pouches; assay type: in vivo, dog; settings: intravenous infusion for 30 min
Method: The action of [Gln^4 ]-neurotensin was tested on the spontaneous motor activity in isolated canine fundic, antral and intestinal pouches. All of these pouches had been prepared more than 6 months prior to the testing. […] The gastro-intestinal tract appears to be the principal target organ for [Gln^4 ]-neurotensin, and is a basis for clinical use of [Gln^4 ]-neurotensin in patients having diseases of gastroenterology (S. Andersson, M.D. S. Rosell M.D., U. Hjelmquist M.D., D. Chang Ph.D. and K. Folkers Ph.D., Gastroenterology, in press).

guinea pig ileum = test: Contraction of Guinea Pig Ileum; settings: ileum segments in Tyrode's solution at 37°
Method: Freshly dissected segments of guinea pig ileum were suspended in a 40 ml bath which was maintained at 37° and serated with a mixture of O2 --CO2 (95:5), and containing Tyrode's solution.

anesthetized dogs = test: Heart, blood flow, blood glucose and lipolysis in anesthetized dogs; assay type: in vivo, dog
Text: [Gln^4 ]-neurotensin ([Gln]^4 -NT) has also been studied on the heart and on the blood from in subcutaneous adipose tissue, skin, and small intestine in anesthetized dogs. In addition, its possible action has been investigated on blood glucose concentration and lypolysis in subcutaneous adipose tissue.

rats [2] = test: Hyperglycemic Assay; assay type: in vivo, rat; settings: 15 minutes after injection
Method: Rats weighing 100-125 g were anesthetized with pentobarbital (50 mg/kg). The test samples were dissolved in 0.85% saline and administered via a tail vein. Each animal was killed by decapitation 15 minutes after injection and plasma glucose levels were measured by the method of Ceriotti and Frank. […] The plasma glucose values are given in mg %.

rabbit anti-NT serum = test: Radioimmunoassay; assay type: binding; settings: I^125 -NT, two rabbit antisera, pH 7.4, 4° C.
Method: Two antisera were used in these assays. One has been characterized as being directed solely toward the COOH-terminus, and the other requires most of the molecule.
The radioimmunoassay method used was an equilibrium system carried out at pH 7.4 in 10 × 75 mm disposable flint glass tubes and employing PBS-gel as diluent. […] The mixtures were allowed to stand at 4° C. for 18-24 hours. The "bound" (B) and "free" (F) trace were separated at 4° C. by the rapid addition of 1.0 ml of a 1:4 dilution of a stock suspension of charcoal (2.5%) and dextran T-70 (0.25%) in PBS to each tube. The tubes were immediately centrifuged for 20 min at 2000 rpm (PRJ-Universal), and the supernatant fluids were decanted into new tubes. […] "Damage" was usually 2-4% and using antisera at a final dilution of 1:10,000 gave 50-70% binding. All unknowns were assayed in duplicate at three dilutions so as to span the sensitive portion of the curve. The results were obtained by averaging the concentrations determined at each dilution provided that they agreed within 20%.

rats [3] = test: Hypotensive Assay; assay type: in vivo, rat; settings: rats anesthetized with pentobarbital; 50 picomoles/100 g body weight via tail vein
Method: Systemic blood pressure was measured with a Hewlett-Packard recorder and pressure transducer (preamplifier 8805 B, recorder 7782 A, transducer 267 BC) following cannulations of the carotid artery in rats weighing 200-250 g and anesthetized with pentobarbital (50 mg/kg). The test samples were dissolved in 0.85% saline and administered via a tail vein.

[4] = Simulation of isolation steps: stability in acetone 1 N HCl at 37° C.; assay type: physicochemical
Method: Toward simulation of these isolation steps, both in terms of temperature and the concentration of hydrochloric acid, 2 mg of synthetic [Gln^4 ]-neurotensin was dissolved in a mixture of acetone 1 N HCl (100:3 v/v), and this solution was maintained at 37° C. for 12 hours which can be presumed to be less than the time of the original large scale operation at the New England Enzyme Center in Boston. An aliquot of the solution was taken for thin layer electrophoresis on cellulose plates (160 microns, Eastman Chromatographic sheet) at 500 volts in pyridine-acetate buffer, pH 6.5. The major spot on the plate corresponded to [Gln^4 ]-neurotensin.However, a new and minor spot moving toward the cathode was present which had the same TLC retention time as neurotensin. The solution was allowed to stand overnight, and it was then maintained again at 37° for a second 12-hr period. […] The minor spot had increased during the second 12-hr period. The remaining solution was concentrated under reduced pressure at room temperature to remove acetone, and the aqueous residue was then lyophilized. The residual white powder was subjected to thin layer electrophoresis on cellulose plates and pyridine acetate buffer at pH 6.5 and at 500 volts. […] The Rf values were identical with those of an authentic specimen of [Gln^4 ]-neurotensin as follows: Rf^1 0.25; Rf^2 0.89; Rf^3 0.50; Rf^4 0.42; Rf^5 0.21; and Rf^6 0.98.
In the second experiment 10 mg of pure [Gln^4 ]-neurotensin was dissolved in a mixture of acetone 1 N HCl (100:3 v/v), and the solution was maintained at 37° C. for 27 hours to simulate again the steps of isolation which are being critiqued. This time, 3 spots were observed on electrophoretic analysis of an aliquot of the solution which had been maintained at 37° for 27 hrs. Preparative thin layer electrophoresis, extraction, and workup yielded 4.2 mg of recovered [Gln^4 ]-neurotensin and 4.3 mg of neurotensin. The third and much weaker spot was due to only a trace amount of another peptide which presumably resulted from further hydrolysis. […] The fact that in these two experiments, not all of the [Gln^4 ]-neurotensin was converted to neurotensin is relatively unimportant, because these experiments on hydrolysis of the pure [Gln^4 ]-neurotensin only simulates the conditions of processing of 20-45 kg of hypothalamic tissue.

[5] = 10 mg in acetone 1 N HCl (100:3 v/v), 27 hours

## CC[C@H](C)[C@H](NC(=O)[C@H](Cc1ccc(O)cc1)NC(=O)[C@@H]1CCCN1C(=O)[C@H](CCCNC(=N)N)NC(=O)[C@H](CCCNC(=N)N)NC(=O)[C@@H]1CCCN1C(=O)[C@H](CCCCN)NC(=O)[C@H](CC(N)=O)NC(=O)[C@H](CCC(N)=O)NC(=O)[C@H](Cc1ccc(O)cc1)NC(=O)[C@H](CC(C)C)NC(=O)[C@@H]1CCC(=O)N1)C(=O)N[C@@H](CC(C)C)C(=O)O [[Gln^4]-NT]
[1]
  dose inducing significant motor inhibition, vagally innervated antral pouches: 6.3 ng/kg/min
  dose inhibiting motor activity, vagally denervated fundic pouches: above 25 ng × kg^-1 × min^-1
Guinea pig ileum
  Contraction of Guinea Pig Ileum, potency: about equivalent potency
Anesthetized dogs; anesthetized dogs
  action in the peripheral vasculature: delayed vasoconstriction which is prominent is subcutaneous adipose tissue
  blood glucose concentration: increased blood glucose concentration
  cardiac action: no cardiac action
Anesthetized dogs; anesthetized dogs, listed as [Gln]^4 -NT
  action in the peripheral vasculature: both vasodilator and vasoconstrictor actions
Anesthetized dogs; subcutaneous adipose tissue
  lipid metabolism in adipose tissue: no evidence of a change in lipid metabolism in adipose tissue
Rats [2]; 25 picomoles/100 g body weight via tail vein
  Hyperglycemic Assay, plasma glucose: 15±5 mg %
Rats [2]; 50 picomoles/100 g body weight via tail vein
  Hyperglycemic Assay, plasma glucose: 34±4 mg %
Rats [2]; 100 picomoles/100 g body weight via tail vein
  Hyperglycemic Assay, plasma glucose: 116 mg %
Rabbit anti-NT serum
  % Cross Ractivity (Ab #4, #6): 90-100%
Rats [3]
  -ΔSystemic Blood Pressure: 42 ± 8 mm HG
[4]; 2 mg in acetone 1 N HCl (100:3 v/v), two 12-hr periods
  recovered [Gln^4 ]-neurotensin: About 1 mg
[4]; [5]
  neurotensin formed: 4.3 mg
  recovered [Gln^4 ]-neurotensin: 4.2 mg
[4]; acetone 1 N HCl (100:3 v/v)
  stability under the isolation conditions: hydrolyzed or converted to neurotensin

## Substance P (RPKPQQFFGLM-NH2; UniProt P20366 58-68, looked up) [another polypeptide extracted from the hypothalamus, reference compound]
Anesthetized dogs; anesthetized dogs
  action in the peripheral vasculature: hypotension and pronounced vasodilation and no vasoconstrictor or metabolic actions
